Measurements: US9353101B2 (Merck Sharp & Dohme Corp., priority 2012, dated 2016)

Tests used:
[1] = target: T1, CETP (Homo sapiens (Human), UniProt P11597); assay: Scintillation Proximity Assay (SPA) for CETP Activity; type: biochemical; details: 15 nM CETP, biotinylated LDL, 3H-cholesterol ester HDL; read-out: SPA IC50 (CETP Inhibition)
Procedure: Protocol: Scintillation Proximity Assay (SPA) for CETP Activity
First, low density lipoprotein (LDL) (Meridian) was biotinylated by incubating LDL with biotin for 1 hour on ice, after which it was dialyzed to remove free biotin. Then compounds at varying concentrations were incubated with 15 nM CETP (reagent production group, In Vitro Pharmacology, MRL Rahway) and 50 ug/ml of the biotinylated LDL in 50 mM HEPES, 150 mM NaCl, pH 7.4, for 1 hour at 37° C. The reaction was started by adding ^3H-cholesterol ester high density lipoprotein (HDL) (American Radiochemicals Corp) at a concentration of ˜0.6 nM. The reaction proceeded for 2 hours at 37° C., after which time it was quenched by the addition of 12% acetic acid. PVT streptavadin-coated scintillation proximity beads, which had been brought to room temperature, were then added at a concentration of 4 mg/ml. The assay was then mixed and counted after one half hour in a Microbeta plate reader.
Target sequence in this assay (P11597 18-493): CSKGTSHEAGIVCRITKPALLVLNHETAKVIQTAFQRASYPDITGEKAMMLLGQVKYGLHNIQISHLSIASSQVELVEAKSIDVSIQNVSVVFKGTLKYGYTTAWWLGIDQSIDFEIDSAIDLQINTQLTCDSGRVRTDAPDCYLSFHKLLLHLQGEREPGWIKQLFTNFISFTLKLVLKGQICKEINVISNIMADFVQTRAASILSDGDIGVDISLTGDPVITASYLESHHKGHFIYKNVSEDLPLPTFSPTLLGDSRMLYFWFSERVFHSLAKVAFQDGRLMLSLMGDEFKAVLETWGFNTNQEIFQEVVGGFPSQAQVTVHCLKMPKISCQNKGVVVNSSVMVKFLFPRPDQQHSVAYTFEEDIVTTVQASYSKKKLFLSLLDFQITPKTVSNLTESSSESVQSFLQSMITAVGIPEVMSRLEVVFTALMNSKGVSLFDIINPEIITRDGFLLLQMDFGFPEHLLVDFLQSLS

[2] = target: T1, CETP; assay: In vitro radioactive assay of CETP-catalyzed CE and TG transfer (RTA assay), 95% human serum; type: biochemical; details: RTA assay in 95% human serum; read-out: RTA IC50 (CETP Inhibition)
Target sequence in this assay (P11597 18-493 limits assumed): as the sequence (P11597 18-493) above

[3] = cited from earlier work
[4] = patients given torcetrapib and atorvastatin concomitantly compared with atorvastatin alone; cited from earlier work
[5] = patients, anacetrapib with baseline statin therapy compared with just a statin

SMILES	IC50 [1]	also measured
COc1ncc(C(C)C)cc1-c1cnc(N2CC(F)C2)nc1CN1C(=O)O[C@H](c2cc(C(F)(F)F)cc(C(F)(F)F)c2)[C@@H]1C [Example 2, (4S,5R)-5-[3,5-Bis(trifluoromethyl)phenyl]-3-{[2-(3-fluoroazetidin-1-yl)-5-(5-isopropyl-2-methoxypyridin-3-yl)pyrimidin-4-yl]methyl}-4-methyl-1,3-oxazolidin-2-one]	11 nM	
COc1ncc(-c2cnn(C)c2)cc1-c1cnc(N2CC(F)C2)nc1CN1C(=O)O[C@H](c2cc(C(F)(F)F)cc(C(F)(F)F)c2)[C@@H]1C [Example 4]	137 nM	
COc1ncc(C2CC2)cc1-c1cnc(N2CC(F)C2)nc1CN1C(=O)O[C@H](c2cc(C(F)(F)F)cc(C(F)(F)F)c2)[C@@H]1C [Example 5]	34 nM	
COc1ncc(Cl)cc1-c1cnc(N2CCOCC2)nc1CN1C(=O)O[C@H](c2cc(C(F)(F)F)cc(C(F)(F)F)c2)[C@@H]1C [Example 11, (4S,5R)-5-[3,5-Bis(trifluoromethyl)phenyl]-3-{[5-(5-chloro-2-methoxypyridin-3-yl)-2-(morpholin-4-yl)pyrimidin-4-yl]methyl}-4-methyl-1,3-oxazolidin-2-one]	671 nM	
COc1ncc(C2CC2)cc1-c1cnc(N2CCOCC2)nc1CN1C(=O)O[C@H](c2cc(C(F)(F)F)cc(C(F)(F)F)c2)[C@@H]1C [Example 12, (4S,5R)-5-(3,5-Bis(trifluoromethyl)phenyl)-3-((5-(5-cyclopropyl-2-methoxypyridin-3-yl)-2-morpholinopyrimidin-4-yl)methyl)-4-methyloxazolidin-2-one]	530 nM	
COc1ncc(Cl)cc1-c1cnc(N2CC(F)C2)nc1CN1C(=O)O[C@H](c2cc(F)cc(F)c2)[C@@H]1C [Example 13, (4S,5R)-3-{[5-(5-Chloro-2-methoxypyridin-3-yl)-2-(3-fluoroazetidin-1-yl)pyrimidin-4-yl]methyl}-5-(3,5-difluorophenyl)-4-methyl-1,3-oxazolidin-2-one]	728 nM	
COc1ncc(C(C)C)cc1-c1cnc(N2CCOCC2)nc1CN1C(=O)O[C@H](c2cc(C(F)(F)F)cc(C(F)(F)F)c2)[C@@H]1C [Example 15, (4S,5R)-5-[3,5-Bis(trifluoromethyl)phenyl]-3-{[5-(5-isopropyl-2-methoxypyridin-3-yl)-2-(morpholin-4-yl)pyrimidin-4-yl]methyl}-4-methyl-1,3-oxazolidin-2-one]	229 nM	
COc1ncc(-c2c(C)cc(C(=O)O)cc2C)cc1-c1cnc(N2CC(F)(F)C2)cc1CN1C(=O)O[C@H](c2cc(C(F)(F)F)cc(C(F)(F)F)c2)[C@@H]1C [Example 63]		IC50 [2]: 52 nM
Cc1noc(C)c1-c1cnc(N2CCC2)nc1CN1C(=O)O[C@H](c2cc(C(F)(F)F)cc(C(F)(F)F)c2)[C@@H]1C [Example 64, (4S,5R)-3-{[2-(azetidin-1-yl)-5-(3,5-dimethylisoxazol-4-yl)pyrimidin-4-yl]methyl}-5-[3,5-bis(trifluoromethyl)phenyl]-4-methyl-1,3-oxazolidin-2-one]		IC50 [2]: 271 nM
COc1cc(F)c(C(C)C)cc1-c1ccc(C(F)(F)F)cc1CN1C(=O)O[C@H](c2cc(C(F)(F)F)cc(C(F)(F)F)c2)[C@@H]1C [anacetrapib]		increase in mortality ([3]; patients treated with anacetrapib): unlikely; decrease of LDL-C [3, 5]: 40%; increase of HDL-C [3, 5]: 138%
CCOC(=O)N1c2ccc(C(F)(F)F)cc2[C@@H](N(Cc2cc(C(F)(F)F)cc(C(F)(F)F)c2)C(=O)OC)C[C@H]1CC [torcetrapib]		incidence of mortality [4]: higher incidence of mortality
